From PMC10654779, “Development of a fibroblast activation protein-targeted PET/NIR dual-modality probe and its application in head and neck cancer” (Frontiers in Bioengineering and Biotechnology, 2023)

Legend:
[1] = Optical properties (UV/Vis absorbance and fluorescence emission spectra); type: physicochemical; settings: 10 μM in PBS, diluted from 1 mM DMSO
Description: The ultraviolet absorption spectra of FAP-2286-ICG were collected using a UV/Vis spectrophotometer (DU-730, BeckMan Coulter). Fluorescence spectra were collected using a fluorescence spectrometer (FLS980, Edinburgh instruments). FAP-2286-ICG and ICG were dissolved in DMSO at a concentration of 1 mM before being diluted with PBS to a final concentration of 10 μΜ, respectively. The absorbance spectra were taken between 600 and 1100 nm. The emission spectra were recorded in the 790–860 nm range at an excitation wavelength of 770 nm. The concentration dependence of fluorescence intensity of FAP-2286-ICG was assessed with different concentrations of FAP-2286-ICG (0–100 μM). The fluorescent images were collected using a small animal fluorescence imaging system (VISQUE InVivo Smart-LF, Vieworks Co., Ltd) and analyzed using CleVue™ software (Vieworks Co., Ltd).

U87MG cells [2] = test: Cellular retention by fluorescence imaging; type: cell-based, human; settings: 3 μM (based on ICG), 37 °C, 24 h incubation, n = 5
Description: (§1) For the cellular uptake study, U87MG cells (2×10^5 cells/well) were seeded in 24-well plates and incubated at 37°C for 24 h before the experiments (five replicate wells per group). After removing the medium and washing the cells with fresh medium, the cells in each well were treated with DMEM medium containing 0.74 MBq [^68Ga]Ga-FAP-2286-ICG at 37°C for 30, 60, and 120 min. After removing the medium, the cells were washed twice with cold PBS, lysed with NaOH (1 M) twice (0.5 mL/well), and collected. The bound activity was measured with a γ-counter. For the blocking study, a 100-fold excess of the non-radiolabeled precursor was added before treating the cells with [^68Ga]Ga-FAP-2286-ICG. Subsequent experimental procedure and condition were the same as the aforementioned cellular uptake assay. To further verify whether the introduction of ICG affected the targeting of the precursor, [^68Ga]Ga-FAP-2286 was incubated with U87MG cells for 2 h as a control group. Additionally, the retention effect of probe on the tumor was verified. Briefly, U87MG cells were incubated with DMEM medium containing approximately 3 μM (based on the content of ICG) FAP-2286-ICG or ICG at 37 °C for 2, 4, 8, and 24 h. After discarding the medium, the cells were washed three times with PBS and imaged using a small animal FI system with ICG mode to quantify the fluorescent signal.

U87MG xenografts [3] = test: NIR fluorescence imaging of U87MG tumor-bearing mice; type: in vivo; settings: 0.5-72 h post-injection, n = 3
Description: FI was performed using a small animal FI system with ICG mode: The NIR filter set (Excitation: 740–790 nm; Emission: 810–860 nm) was used for ICG fluorescence. The fluorescence intensity was calculated by the mean fluorescence intensity (MFI).
To evaluate the optimal imaging time window, NIR fluorescence images of U87MG tumor-bearing mice were collected at different time points (0.5, 1, 2, 24, 48, and 72 h) post-injection of FAP-2286-ICG (3.16 μg, 1.37 nmol). Following in vivo FI, mice were euthanized, and their xenografts and major organs were harvested for in vitro FI analysis. The ROIs were drawn manually in the tumor and organs on the fluorescence image to account for the distribution of FAP-2286-ICG in the tissue. MFI levels from organs and the TBRs using tumor/muscle values were evaluated.

[4] = human; no reference given; cited from earlier work
From the text: Novel methodologies employing dual-labeled probes aid the surgeon by allowing for more streamlined preoperative planning via PET/CT or PET/MRI and accurate intraoperative navigation guidance.

in vitro = in vitro ADME
Description: The radiochemical purity (RCP) of [^68Ga]Ga-FAP-2286-ICG was assessed using radio instant thin-layer chromatography (Radio-iTLC). Glass microfiber chromatography paper impregnated with a silica gel served as the stationary phase and methanol and 0.25 M sodium acetate (1:1, v/v) as the mobile phase.
The in vitro stability of [^68Ga]Ga-FAP-2286-ICG was assessed by co-culture with 0.01 M PBS and FBS at a concentration of 10% (w/w), respectively, and the mixtures were incubated at 37°C for 0.5, 1, and 2 h.

[5] = type: physicochemical; settings: pH 7.4
Description: The octanol-water partition coefficient of [^68Ga]Ga-FAP-2286-ICG was detected by mixing 10 μL of freshly prepared [^68Ga]Ga-FAP-2286-ICG with 490 μL of PBS (0.1 M, pH 7.4) and 500 μL of n-octanol in a centrifuge tube. The mixture was vortexed for 3 min and centrifuged at 3,000 × rpm for 5 min for layer separation. An aliquot of the aqueous and n-octanol layers was separately collected and measured by γ counter (GC-2101, PET Co., Ltd). Log p values were calculated using the formula: log P = log(total counts in octanol/total counts in PBS).

U87MG cells [6] = test: Cellular uptake study (radioactivity, γ-counter); type: cell-based, human
Description: as §1

in vivo = type: in vivo, mice; settings: female, BALB/c nude, mouse, in vivo, iv, total radioactivity
Description: (§2) All animal studies were performed according to the protocols approved by the Animal Welfare Ethics Committee of Shanghai Fourth People’s Hospital. Six to eight-week-old female BALB/c nude mice were purchased from Beijing Vital River Laboratory Animal Technology Co., Ltd. To establish cell-derived xenograft (CDX) models, the mice were implanted subcutaneously in the flanks with 5 × 10^6 U87MG cells in PBS containing 50% Matrigel. HNSCC cell lines (FaDu, CAL27, and CNE2) were inoculated subcutaneously on the right flanks of nude mice. The diameter of each tumor was determined and documented every 2–3 days. When the tumor reached 300–400 mm^3, the mice were used for the imaging study. The U87MG tumor-bearing mice were used to study the in vivo targeting, biodistribution, and optimal FI time window of [^68Ga]Ga-FAP-2286-ICG. HNSCC tumor-bearing mice were used to evaluate the feasibility of [^68Ga]Ga-FAP-2286-ICG for tumor localization and guided surgical resection of HNSCC tumors.
(§3) PET/CT imaging was performed in U87MG tumor-bearing mice to assess the tumor-targeting efficiency and biodistribution of [^68Ga]Ga-FAP-2286-ICG in vivo. The mice were injected with 10 MBq (1 nmol) of [^68Ga]Ga-FAP-2286-ICG through the tail vein, and images were performed at 30, 60, and 90 min after injection. The blocking group was pre-injected with the 50-fold molar excess of non-radiolabeled precursor 1 h in advance.

U87MG xenografts [7] = test: in vivo; type: in vivo, mice; settings: for SUVmax of the tumor: U87MG tumor-bearing mice, 10 MBq (1 nmol) i.v.
Description: as §2, §3

BALB/c mice = test: Toxicity study in BALB/c mice; type: in vivo
Description: The BALB/c mice were sacrificed and collected from the heart, liver, spleen, lung, and kidney to determine toxicity with hematoxylin and eosin (H&E) staining. The serum was collected to measure the levels of aspartate aminotransferase (AST), alanine aminotransferase (ALT), and blood urea nitrogen (UREA). Body weight was recorded every 5 days up to 20 days postinjection. The mice with intravenous injections of saline served as a control group.

Structure (SMILES)	NIR-I fluorescence emission peak ([1]; excitation 770 nm, 790-860 nm)	absorption peak ([1]; spectra 600-1100 nm)	fluorescent signal retained by cells (U87MG cells [2])	fluorescence signal in the tumor site (U87MG xenografts [3])	clinically safe dose [4]	RCP after incubation in PBS (in vitro)	remaining at 2 h (in vitro; serum)	partition coefficient log P [5]	cellular uptake (U87MG cells [6]; 0.74 MBq, 37°C, 60 min, five replicate wells)	cellular uptake, blocked (U87MG cells [6]; 60 min, 100-fold excess of non-radiolabeled precursor)	cellular uptake of [68Ga]Ga-FAP-2286-ICG compared to [68Ga]Ga-FAP-2286 (U87MG cells [6]; 2 h incubation, p = 0.1945)	SUV (in vivo)	SUVmax of the tumor, blocking group (U87MG xenografts [7]; 60 min p.i., 50-fold molar excess of non-radiolabeled precursor pre-injected 1 h in advance, n = 3)	SUVmax of the tumor (U87MG xenografts [7]; 30 min, n = 3)	SUVmax of the tumor (U87MG xenografts [7]; 90 min, n = 3)	route of elimination (PET/CT) (U87MG xenografts [7]; mouse, in vivo)	acute toxicity (BALB/c mice; BALB/c mice, 3-week period, n = 3)	serum concentrations of AST, ALT and UREA versus control group (BALB/c mice; BALB/c mice, 3 weeks after injection, saline control, n = 3)	pathological abnormalities in major organs (H&E) (BALB/c mice; mouse, in vivo)
CC1(C)C(/C=C/C=C/C=C/C=C2\N(CCCCS(=O)(=O)O)c3ccc4ccccc4c3C2(C)C)=[N+](CCCCS(=O)(=O)[O-])c2ccc3ccccc3c21 [ICG, indocyanine green]	808 nm	779 nm	3.13×10^13 ± 2.21×10^12 p/sec/cm^2/sr/[μW/cm^2]	no fluorescence signals in the tumor site	5 mg/kg														
CCCCCC(=O)N[C@H]1CSCc2cc(CSCCNC(=O)[C@H](CCCCNC(=O)CCCCCN3/C(=C/C=C/C=C/C=C/C4=[N+](CCCCS(=O)(=O)[O-])c5ccc6ccccc6c5C4(C)C)C(C)(C)c4c3ccc3ccccc43)NC(=O)CN3CCN(CC(=O)O)CCN(CC(=O)O)CCN(CC(=O)O)CC3)cc(c2)CSC[C@@H](C(=O)O)NC(=O)[C@H](Cc2ccccc2)NC(=O)[C@H](CCC(N)=O)NC(=O)[C@H]([C@@H](C)O)NC(=O)[C@@H]2CCCN2C(=O)[C@@H]2CCCN2C1=O [[^68Ga]Ga-FAP-2286-ICG, metal not drawn]						greater than 85%	> 85%	−1.20 ± 0.18	12.00% ± 1.73 %ID	6.88% ± 0.37 %ID	no statistically significant difference	0.18 ± 0.07 SUV	0.17 ± 0.01	0.57 ± 0.10	0.58 ± 0.23	mainly eliminated through liver metabolism and kidney excretion	no evident signs of acute toxicity	did not exhibit significant changes	No significant pathological abnormalities
